# Assay results published in patent US12097192B2 (Corcept Therapeutics Incorporated, priority 2019, dated 2024).
# How the values were obtained:
# [1] = test system: other nuclear steroid hormone receptors; assay: Binding to other nuclear steroid hormone receptors
# [2] = test system: Cushing's syndrome patients; assay: Cushing's syndrome patient study: weight loss; format: in vivo, human
# Text: (§1) All patients gave informed consent before participating in any study-related procedures.
# [3] = test system: Cushing's syndrome patients; assay: Cushing's syndrome patient study: POMC/proACTH and HPA axis; format: in vivo, human; conditions: for POMC and proACTH mean change from Baseline to Last Observed: All Subjects
# Text: (§2) All patients gave informed consent before participating in any study-related procedures. […] The study protocol called for patient visits to the study site at screening, on Day 1 (baseline), Weeks 2, 4, 6, 8, 10, and 12, and after a 4-week follow-up period for Group 1. For Group 2, the protocol called for patient visits to the study site at screening, on Day 1 (baseline), Weeks 2, 4, 6, 8, 10, 12, 14, and 16, and after a 4-week follow-up period. Patient dosing will be done at home, except on days of study visits. […] It ignores noncompliance, protocol deviations, withdrawal, and anything that happens after randomization. In contrast, per-protocol (PP) analysis refers to inclusion in the analysis of only those patients who strictly adhered to the protocol. The PP analysis provides an estimate of the true efficacy of an intervention, i.e., among those who completed the treatment as planned.
# [4] = test system: Cushing's syndrome patients; assay: Cushing's syndrome patient study: bone markers; format: in vivo, human; set-up: Serμm Bone Alkaline Phosphatase mean change from Baseline to Last Observed: unit not given here; conditions: All Subjects
# Text: as §2
# [5] = test system: Cushing's syndrome patients; assay: Phase 2 CORT125134-451 study in Cushing syndrome: overall clinical efficacy; format: in vivo, human
# Procedure: All patients gave informed consent before participating in any study-related procedures. […] Response criteria for hyperglycemia were changes from baseline in glucose tolerance as measured by: ≥0.5% decrease in HbA1c, normalization or ≥50 mg/dL decrease in 2-hr OGTT glucose, or decrease in total daily insulin (≥25%) or sulfonylurea dose (≥50%). Response criteria for hypertension (HTN) was a ≥5 mm Hg decrease in mean systolic and/or diastolic blood pressure (SBP/DBP). […] The efficacy of the drug in Cushing syndrome was assessed based on the improvement of morbidities associated with excess cortisol activity, e.g. hyperglycaemia, hypertension, cognitive dysfunction, depression, poor quality of life, hypercoagulopathy and obesity. (A morbidity associated with excess cortisol, e.g., associated with hypercortisolemia, Cushing's syndrome, Cushing's disease, etc., is also termed a “comorbidity”.)
# [6] = test system: Cushing's syndrome patients; assay: Cushing's syndrome patient study: hypertension response (24-hour ambulatory blood pressure); format: in vivo, human
# Procedure: as §1
# Response criteria for hyperglycemia were changes from baseline in glucose tolerance as measured by: ≥0.5% decrease in HbA1c, normalization or ≥50 mg/dL decrease in 2-hr OGTT glucose, or decrease in total daily insulin (≥25%) or sulfonylurea dose (≥50%). Response criteria for hypertension (HTN) was a ≥5 mm Hg decrease in mean systolic and/or diastolic blood pressure (SBP/DBP).
# Response was based on ≥0.5% reduction of HbA1c associated with reduction or discontinuation of diabetes medications or clinically significant reduction (≥50 mg/dL decrease) or normalisation of the 2-hour glucose measurement from an oral glucose tolerance test (OGTT).
# [7] = mITT, Group 2 (250-400 mg/day, 16 weeks)
# [8] = mPP, Group 2 (250-400 mg/day, 16 weeks)
# [9] = mITT, Group 1 (100-200 mg/day, 12 weeks)
# [10] = mPP, Group 1 (100-200 mg/day, 12 weeks)
smiles,measurement,setting,value
"Cn1cc(S(=O)(=O)N2CCC3=Cc4c(cnn4-c4ccc(F)cc4)C[C@]3(C(=O)c3cc(C(F)(F)F)ccn3)C2)cn1 [relacorilant, (R)-(1-(4-fluorophenyl)-6-((1-methyl-1H-pyrazol-4-yl)sulfonyl)-4,4a,5,6,7,8-hexahydro-1H-pyrazolo[3,4-g]isoquinolin-4a-yl) (4-(trifluoromethyl)pyridin-2-yl)methanone]",binding to other nuclear steroid hormone receptors,[1],does not bind
same,average weight loss,"[2]; doses up to 200 mg daily, within 3 months",2.2 kg
same,average weight loss,"[2]; doses up to 400 mg daily, within 3 months",5.1 kg
same,weight loss,[2]; many of the patients,Some weight loss
same,weight changes,"[2]; within 3 months, in half of the patients",significant weight changes
same,POMC and proACTH mean change from Baseline to Last Observed,[3]; [7],7.91 pmol/L
same,POMC and proACTH mean change from Baseline to Last Observed,"[3]; mITT, Overall",7.91 pmol/L
same,POMC and proACTH mean change from Baseline to Last Observed,[3]; [8],7.91 pmol/L
same,POMC and proACTH mean change from Baseline to Last Observed,"[3]; mPP, Overall",7.91 pmol/L
same,restoration of the suppressed HPA axis,[3]; patients with adrenal Cushing syndrome,half of the cases
same,Serμm Bone Alkaline Phosphatase mean change from Baseline to Last Observed,[4]; [9],1.82
same,Serμm Osteocalcin mean change from Baseline to Last Observed,[4]; [9],4.57 µg/L
same,Urinary NTx mean change from Baseline to Last Observed,[4]; [9],2.21 nmolBCE/mmol
same,Serμm Bone Alkaline Phosphatase mean change from Baseline to Last Observed,[4]; [7],−1.09
same,Serμm Osteocalcin mean change from Baseline to Last Observed,[4]; [7],1.33 µg/L
same,Urinary NTx mean change from Baseline to Last Observed,[4]; [7],0.63 nmolBCE/mmol
same,Serμm Bone Alkaline Phosphatase mean change from Baseline to Last Observed,"[4]; mITT, Overall",0.41
same,Serμm Osteocalcin mean change from Baseline to Last Observed,"[4]; mITT, Overall",3 µg/L
same,Urinary NTx mean change from Baseline to Last Observed,"[4]; mITT, Overall",1.37 nmolBCE/mmol
same,Serμm Bone Alkaline Phosphatase mean change from Baseline to Last Observed,[4]; [10],1.82
same,Serμm Osteocalcin mean change from Baseline to Last Observed,[4]; [10],4.68 µg/L
same,Urinary NTx mean change from Baseline to Last Observed,[4]; [10],2.21 nmolBCE/mmol
same,Serμm Bone Alkaline Phosphatase mean change from Baseline to Last Observed,[4]; [8],−1.09
same,Serμm Osteocalcin mean change from Baseline to Last Observed,[4]; [8],1.33 µg/L
same,Urinary NTx mean change from Baseline to Last Observed,[4]; [8],0.63 nmolBCE/mmol
same,Serμm Bone Alkaline Phosphatase mean change from Baseline to Last Observed,"[4]; mPP, Overall",0.41
same,Serμm Osteocalcin mean change from Baseline to Last Observed,"[4]; mPP, Overall",3.06 µg/L
same,Urinary NTx mean change from Baseline to Last Observed,"[4]; mPP, Overall",1.37 nmolBCE/mmol
same,reduction of the effects of excess cortisol,[5]; Cushing's syndrome patients,effective in reducing many of the effects of excess cortisol
same,time to improvement in hyperglycaemia and hypertension,[5]; after achieving a therapeutic dose,within two weeks
same,clinical effect on hyperglycemia and hypertension,[5]; dosages up to 400 mg/day,clinical improvement in hyperglycemia and hypertension
same,"secondary endpoints: hypercoagulopathy, liver function, serum osteocalcin, cognitive function, depression, quality of life",[5]; high-dose group,statistically significant improvements
same,efficacy relative to previous metyrapone therapy (primary and secondary endpoints),[5]; two patients treated previously with metyrapone,higher efficacy
same,hypertension response rate (≥5 mmHg reduction),"[6]; HD group (doses up to 400 mg daily), week 16",63.6%
same,hypertension response rate (≥5 mmHg reduction),"[6]; LD group (doses up to 200 mg daily), week 12",41.7%
same,nocturnal and daytime blood pressures,[6]; hypertension responders,clinically significant improvement
